Results on 7 compounds are retold here after ChEMBL document CHEMBL6078646, “Target Ligand Separation and Identification of Isoforsythiaside as a Histone Lysine-Specific Demethylase 1 Covalent Inhibitor Against Breast Cancer Metastasis” (J Med Chem, 2024).

Molecules are shown by their SMILES. Active and inactive are the calls of the source. No cut-off for these calls is given here. Residues, ends and D or L forms follow the SMILES beside them. *: point of attachment. Cbz = O=C(OCc1ccccc1)*

Data set [1] concerns the target T1, Lysine-specific histone demethylase 1A (Homo sapiens, UniProt O60341). Put plainly: Binding affinity to recombinant LSD1 (unknown origin) at S817 residue by LC-MS/MS analysis.
Data set [2] has as its target T1, Lysine-specific histone demethylase 1A. Put plainly: Inhibition of recombinant His-tagged LSD1 (157 to 852 residues) (unknown origin) expressed in Escherichia coli BL21 (DE3) cells using H3K4me2 peptide as substrate incubated for 30 mins by fluorescence microplate reader analysis.
Data set [3] can be described thus: Retention time of the compound by HPLC-MS/MS analysis. Type of data set: physicochemical.
Data set [4] relates to MDA-MB-231. Put plainly: Antitumor activity against human MDA-MB-231 cells expressing luciferase xenografted in female Balb/c nude mouse assessed as increase in body weight at 10 mg/kg, ip administered every 3 days and measured after 33 days. The format is functional, organism-based. The settings on record: time 33.0 day. On the technique in general: In xenograft studies the graft and the host belong to different species.

The test system of data set [5] is MDA-MB-231. The data set is described as follows: Antimetastatic activity against human MDA-MB-231 cells expressing luciferase xenografted in female Balb/c nude mouse assessed as reduction in fluorescence intensity in lungs at 10 mg/kg, ip administered every 3 days and measured on day 15 by bioluminescence imaging analysis relative to control. Type of data set: functional. Also noted: scale not given: the % may be the effect or the level left. The settings on record: time 15 day.

Data set [6] has as its system MDA-MB-231. The data set is described as follows: Antimetastatic activity against human MDA-MB-231 cells expressing luciferase xenografted in female Balb/c nude mouse assessed as reduction in lung metastasis at 10 mg/kg, ip administered every 3 days and measured on day 30 by bioluminescence imaging analysis. The format is functional, organism-based. The settings on record: time 30.0 day.

The subject of data set [7] is MDA-MB-231. Put plainly: Antimetastatic activity against human MDA-MB-231 cells expressing luciferase xenografted in female Balb/c nude mouse assessed as reduction in number of metastatic nodules in the lung at 10 mg/kg, ip administered every 3 days and measured after 30 days by H and E staining based histopathological analysis relative to control. The format is functional. Also on record: scale not given: the % may be the effect or the level left. To be noted: time 30 day.

For data set [8], the system named is MDA-MB-231. The data set is described as follows: Antimetastatic activity against human MDA-MB-231 cells expressing luciferase xenografted in female Balb/c nude mouse assessed as smaller metastatic nodules in lung at 10 mg/kg, ip administered every 3 days and measured after 30 days by H and E staining based analysis. Type of data set: functional, organism-based. To be noted: time 30.0 day.

The test system of data set [9] is MDA-MB-231. The data set is described as follows: Upregulation of RBMS3 protein expression in human MDA-MB-231 cells at 16 uM by Western blotting analysis. The format is functional, cell-based. A general note: In western blotting, separated proteins are transferred to a membrane and probed.
In data set [10] the test system is MDA-MB-231. The data set is described as follows: Inhibition of Twist1 production in human MDA-MB-231 cells at 16 uM by Western blotting analysis. Type of data set: functional, cell-based.
The test system of data set [11] is MDA-MB-231. Put plainly: Inhibition of MMP2 production in human MDA-MB-231 cells at 16 uM by Western blotting analysis. The format is functional, cell-based.
Data set [12] deals with MDA-MB-231. The data set is described as follows: Induction of LSD1 degradation in human MDA-MB-231 cells incubated for 12 hrs by Western blotting analysis. The format is cell-based.

With `C[C@@H]1O[C@H](OC[C@H]2O[C@@H](OCCc3ccc(O)c(O)c3)[C@H](O)[C@@H](OC(=O)CCc3ccc(O)c(O)c3)[C@@H]2O)[C@H](O)[C@H](O)[C@H]1O`, the outcome in [1] was inactive. In addition, the inhibition entry in data set [2] is “inactive”.
The IC50 is the concentration at which inhibition is half-maximal. On to `COc1ccc([C@@H]2OC[C@H]3[C@@H]2CO[C@@H]3c2ccc(O[C@H]3O[C@H](CO)[C@@H](O)[C@H](O)[C@H]3O)c(OC)c2)cc1OC`, for which the Retention_time in data set [3] was determined as 40.6 min. Further, in data set [2], the half-inhibitory concentration (IC50) stood at 5.51 µM.
Taken in the same sequence, the figures for `C[C@@H]1O[C@@H](OC[C@H]2O[C@@H](OCCc3ccc(O)c(O)c3)[C@H](O)[C@@H](O)[C@@H]2OC(=O)/C=C/c2ccc(O)c(O)c2)[C@H](O)[C@H](O)[C@H]1O` [FORSYTHIASIDE] were 31.9 min and 8.08 µM.
On to `CC(=O)O[C@H]1C(=O)[C@@]2(C)[C@H]([C@H](OC(=O)c3ccccc3)[C@]3(O)C[C@H](OC(=O)[C@H](O)[C@@H](NC(=O)c4ccccc4)c4ccccc4)C(C)=C1C3(C)C)[C@]1(OC(C)=O)CO[C@@H]1C[C@@H]2O` [PACLITAXEL], for which the Activity result with MDA-MB-231 [4] is “Active; Slight Attenuation Of Body Weight Loss Observed”; in the data set on MDA-MB-231 [5], 89.6%; in the data set on MDA-MB-231 [7], 55.5%. Further, the outcome in the data set with MDA-MB-231 [6] and in the data set on MDA-MB-231 [8] was Active. The IC50 in data set [2] amounted to 0.0296 µM.
On to `N[C@H]1CC[C@H](N[C@@H]2C[C@H]2c2ccccc2)CC1`, for which the AC30 entry in the data set with MDA-MB-231 [9] is “Active”. Further, the inhibition result with MDA-MB-231 [10] and with MDA-MB-231 [11] was “Active” each time.
As for `C[C@@H]1O[C@@H](O[C@@H]2[C@@H](O)[C@H](OCCc3ccc(O)c(O)c3)O[C@H](CO)[C@H]2OC(=O)/C=C/c2ccc(O)c(O)c2)[C@H](O)[C@H](O)[C@H]1O` [ACETOSIDE], the Retention_time in [3] is 25.8 min. Further, the IC50 in [2] came out at 3.6 µM.
For `CC(C)C[C@@H](C=O)NC(=O)[C@H](CC(C)C)NC(=O)[C@H](CC(C)C)NC(=O)OCc1ccccc1` (Cbz-Leu-Leu-Leu-aldehyde), the outcome in the data set on MDA-MB-231 [12] was inactive.
